“And” between values parts separate entries of the source, which are not always exact repeats. Equal entries are not always repeated. Records with an inconclusive call do not appear.

The experiment deals with CD8F1 mice, subcutaneous mammary adenocarcinoma, T/C%. Briefly: NCI In Vivo Anticancer Drug Screen. Data for tumor model Mammary Adenocarcinoma CD8F1 (subcutaneous) in CD8F1. To be noted: higher = larger tumour. In outline: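 Tumor-bearing mice, transplantable model; readout survival or tumor size; value = treated (T) / vehicle control (C).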
[1] abbreviates: endpoint: median tumor weight (est.), dose: 6.25 mg/kg/injection, schedule: Q07DX005 (ip), vehicle: saline.
[2] abbreviates: endpoint: median tumor weight (est.), dose: 12.5 mg/kg/injection, schedule: Q07DX005 (ip), vehicle: saline.
Where [3] appears, read: endpoint: median tumor weight (est.), dose: 25.0 mg/kg/injection, schedule: Q07DX005 (ip), vehicle: saline.
The mark [4] stands for this setting: endpoint: median tumor weight change, dose: 62.5 mg/kg/injection, schedule: Q01DX001 (ip), vehicle: saline with Tween-80.

In the case of `C[C@@]1(CO)[C@H](O)CC[C@@]2(C)[C@H]1CC[C@H]1C[C@@H]3C[C@@]12CC[C@@]3(O)COC(=O)CN`, the T/C is 78 % of control (endpoint: median tumor weight change, dose: 9.88 mg/kg/injection, schedule: Q01DX001 (ip), vehicle: Klucel (hydroxypropylcellulose) (HPC)); 68 % of control (endpoint: median tumor weight change, dose: 18.75 mg/kg/injection, schedule: Q01DX001 (ip), vehicle: Klucel (hydroxypropylcellulose) (HPC)); 98 % of control (endpoint: median tumor weight change, dose: 37.5 mg/kg/injection, schedule: Q01DX001 (ip), vehicle: Klucel (hydroxypropylcellulose) (HPC)); 84 % of control (endpoint: median tumor weight change, dose: 75.0 mg/kg/injection, schedule: Q01DX001 (ip), vehicle: Klucel (hydroxypropylcellulose) (HPC)); 170 % of control (endpoint: median tumor weight change, dose: 62.5 micrograms/kg/injection, schedule: Q01DX001 (ip), vehicle: saline + alcohol); 90 % of control (endpoint: median tumor weight change, dose: 125.0 micrograms/kg/injection, schedule: Q01DX001 (ip), vehicle: saline + alcohol). The T/C runs as follows: (endpoint: median tumor weight change, dose: 250.0 micrograms/kg/injection, schedule: Q01DX001 (ip), vehicle: saline + alcohol) 115 % of control; (endpoint: median tumor weight change, dose: 1000.0 micrograms/kg/injection, schedule: Q01DX001 (ip), vehicle: saline + alcohol) 106 % of control.
Take `O=[N+]([O-])O.[Ga]`: the T/C was 120 % of control (endpoint: mean tumor weight, dose: 75.0 mg/kg/injection, schedule: Q01DX009 (ip), vehicle: saline); 94 % of control under setting [1]; 114 % of control under setting [2]; 91 % of control (endpoint: median tumor weight (est.), dose: 25.0 mg/kg/injection, schedule: Q04DX005 (ip), vehicle: saline); 120 % of control (endpoint: median tumor weight (est.), dose: 25.0 mg/kg/injection, schedule: Q07DX004 (ip), vehicle: saline); 120 % of control under setting [3]. Moreover, the T/C by setting is: (endpoint: median tumor weight (est.), dose: 50.0 mg/kg/injection, schedule: Q07DX004 (ip), vehicle: saline) 184 % of control; (endpoint: median tumor weight (est.), dose: 100.0 mg/kg/injection, schedule: Q04DX005 (ip), vehicle: saline) 153 % of control.
As for `CC1=CC(C)(C)Nc2ccc(CSc3ccccc3)cc21`, the T/C reads like this: (endpoint: median tumor weight change, dose: 50.0 mg/kg/injection, schedule: Q01DX001 (ip), vehicle: saline + Tween-80 + alcohol) 46 % of control; (endpoint: median tumor weight change, dose: 62.0 mg/kg/injection, schedule: Q01DX001 (ip), vehicle: DMSO) 37 % of control; (endpoint: median tumor weight change, dose: 100.0 mg/kg/injection, schedule: Q01DX001 (ip), vehicle: saline + Tween-80 + alcohol) 37 % of control; (endpoint: median tumor weight change, dose: 125.0 mg/kg/injection, schedule: Q01DX001 (ip), vehicle: DMSO) 38 % of control; (endpoint: median tumor weight change, dose: 200.0 mg/kg/injection, schedule: Q01DX001 (ip), vehicle: saline + Tween-80 + alcohol) 47 % of control; (endpoint: median tumor weight change, dose: 250.0 mg/kg/injection, schedule: Q01DX001 (ip), vehicle: DMSO) 29 % of control. The T/C by setting is: (endpoint: median tumor weight change, dose: 400.0 mg/kg/injection, schedule: Q01DX001 (ip), vehicle: saline + Tween-80 + alcohol) 46 % of control; (endpoint: median tumor weight change, dose: 800.0 mg/kg/injection, schedule: Q01DX001 (ip), vehicle: saline + Tween-80 + alcohol) 32 % of control; (endpoint: median tumor weight change, dose: 2000.0 mg/kg/injection, schedule: Q01DX001 (ip), vehicle: DMSO) 61 % of control.
Turning to `COc1ccc2[nH]c3c(c2c1)CCNC3CC(C)CCC=C(C)C` (stereo unspecified), the T/C (endpoint: median tumor weight change, dose: 15.62 mg/kg/injection, schedule: Q01DX001 (ip), vehicle: Klucel (hydroxypropylcellulose) (HPC)) is 118 % of control; the T/C (endpoint: median tumor weight change, dose: 25.0 mg/kg/injection, schedule: Q01DX001 (ip), vehicle: Klucel (hydroxypropylcellulose) (HPC)) is 100 % of control; the T/C (endpoint: median tumor weight change, dose: 31.25 mg/kg/injection, schedule: Q01DX001 (ip), vehicle: Klucel (hydroxypropylcellulose) (HPC)) is 197 % of control; the T/C (endpoint: median tumor weight change, dose: 50.0 mg/kg/injection, schedule: Q01DX001 (ip), vehicle: Klucel (hydroxypropylcellulose) (HPC)) is 64 % of control; the T/C (endpoint: median tumor weight change, dose: 100.0 mg/kg/injection, schedule: Q01DX001 (ip), vehicle: Klucel (hydroxypropylcellulose) (HPC)) was 51 % of control; the T/C (endpoint: median tumor weight change, dose: 125.0 mg/kg/injection, schedule: Q01DX001 (ip), vehicle: Klucel (hydroxypropylcellulose) (HPC)) is 159 % of control.
In the case of `CN=C(N)N/N=C(\c1ccccc1)c1ccc(Br)cc1`, the T/C (endpoint: median tumor weight change, dose: 15.6 mg/kg/injection, schedule: Q01DX001 (ip), vehicle: saline with Tween-80) was 71 % of control; the T/C (endpoint: median tumor weight change, dose: 31.25 mg/kg/injection, schedule: Q01DX001 (ip), vehicle: saline with Tween-80) is 56 % of control; the T/C under setting [4] is 55 % of control.
As for `Cc1cc(=NO)cc(C)n1O`, the T/C was 52 % of control and 77 % of control (endpoint: median tumor weight change, dose: 125.0 mg/kg/injection, schedule: Q01DX001 (ip), vehicle: distilled water + alcohol); 78 % of control and 80 % of control (endpoint: median tumor weight change, dose: 250.0 mg/kg/injection, schedule: Q01DX001 (ip), vehicle: distilled water + alcohol); 69 % of control and 78 % of control (endpoint: median tumor weight change, dose: 500.0 mg/kg/injection, schedule: Q01DX001 (ip), vehicle: distilled water + alcohol).
Take `CCCCCCCCCCCCCCCCP(=O)(OCCOCCCCCC)OCCOCCCCCC`: the T/C (endpoint: median tumor weight (est.), dose: 3.12 mg/kg/injection, schedule: Q07DX005 (ip), vehicle: saline) was 118 % of control; the T/C under setting [1] is 156 % of control; the T/C under setting [2] is 85 % of control; the T/C under setting [3] was 72 % of control; the T/C (endpoint: median tumor weight (est.), dose: 50.0 mg/kg/injection, schedule: Q07DX005 (ip), vehicle: saline) is 94 % of control; the T/C (endpoint: median tumor weight (est.), dose: 100.0 mg/kg/injection, schedule: Q07DX005 (ip), vehicle: saline) was 55 % of control.
Take `CC(=O)ON(C(C)=O)c1ccc(C(N)=O)cc1`: the T/C is, setting by setting: under setting [4], 68 % of control; (endpoint: median tumor weight change, dose: 125.0 mg/kg/injection, schedule: Q01DX001 (ip), vehicle: saline with Tween-80) 96 % of control; (endpoint: median tumor weight change, dose: 250.0 mg/kg/injection, schedule: Q01DX001 (ip), vehicle: saline with Tween-80) 64 % of control.
As to `O=c1s[se]c2ccccc12`, the T/C is, setting by setting: (endpoint: median tumor weight (est.), dose: 3.12 mg/kg/injection, schedule: Q07DX005 (ip), vehicle: saline with Tween-80) 86 % of control; (endpoint: median tumor weight (est.), dose: 6.25 mg/kg/injection, schedule: Q07DX005 (ip), vehicle: saline with Tween-80) 187 % of control; (endpoint: median tumor weight (est.), dose: 12.5 mg/kg/injection, schedule: Q07DX005 (ip), vehicle: saline with Tween-80) 156 % of control; (endpoint: median tumor weight (est.), dose: 25.0 mg/kg/injection, schedule: Q07DX005 (ip), vehicle: saline with Tween-80) 82 % of control; (endpoint: median tumor weight (est.), dose: 50.0 mg/kg/injection, schedule: Q07DX005 (ip), vehicle: saline with Tween-80) 81 % of control.
On to `C[C@H]1C[C@@H]2[C@H]([C@@H](O)C[C@@]3(C)[C@H]2CC[C@]3(O)C(=O)CO)[C@@]2(C)C=CC(=O)C=C12`, for which the T/C (endpoint: median tumor weight (est.), dose: 6.25 mg/kg/injection, schedule: Q07DX005 (ip), vehicle: Klucel (hydroxypropylcellulose) (HPC)) was 70 % of control; the T/C (endpoint: median tumor weight (est.), dose: 12.5 mg/kg/injection, schedule: Q07DX005 (ip), vehicle: Klucel (hydroxypropylcellulose) (HPC)) is 63 % of control; the T/C (endpoint: median tumor weight (est.), dose: 25.0 mg/kg/injection, schedule: Q07DX005 (ip), vehicle: Klucel (hydroxypropylcellulose) (HPC)) is 63 % of control; the T/C (endpoint: median tumor weight (est.), dose: 50.0 mg/kg/injection, schedule: Q07DX005 (ip), vehicle: Klucel (hydroxypropylcellulose) (HPC)) was 60 % of control; the T/C (endpoint: median tumor weight (est.), dose: 100.0 mg/kg/injection, schedule: Q07DX005 (ip), vehicle: Klucel (hydroxypropylcellulose) (HPC)) was 53 % of control; the T/C (endpoint: median tumor weight (est.), dose: 200.0 mg/kg/injection, schedule: Q07DX005 (ip), vehicle: Klucel (hydroxypropylcellulose) (HPC)) was 28 % of control.
Regarding `CCCCNCCCNCCCNC(=O)c1csc(-c2csc(CCNC(=O)C(NC(=O)C(C)C(O)C(C)NC(=O)C(NC(=O)c3nc(C(CC(N)=O)NCC(N)C(N)=O)nc(N)c3C)C(OC3OC(CO)C(O)C(O)C3OC3OC(CO)C(O)C(OC(N)=O)C3O)c3cnc[nH]3)C(C)O)n2)n1` (stereo unspecified), the T/C (endpoint: median tumor weight (est.), dose: 4.0 mg/kg/injection, schedule: Q07DX005 (ip), vehicle: saline) is 16 % of control; the T/C (endpoint: median tumor weight (est.), dose: 8.0 mg/kg/injection, schedule: Q07DX005 (ip), vehicle: saline) is 10 % of control; the T/C (endpoint: median tumor weight (est.), dose: 16.0 mg/kg/injection, schedule: Q07DX005 (ip), vehicle: saline) was 16 % of control.
Turning to `CC(C)[NH-].CC(C)[NH-].[Cl][Pt+2][Cl]`, the T/C was 106 % of control (endpoint: median tumor weight (est.), dose: 3.12 mg/kg/injection, schedule: Q07DX005 (ip), vehicle: dextrose); 80 % of control (endpoint: median tumor weight (est.), dose: 6.25 mg/kg/injection, schedule: Q07DX005 (ip), vehicle: dextrose); 42 % of control (endpoint: median tumor weight (est.), dose: 12.5 mg/kg/injection, schedule: Q07DX005 (ip), vehicle: dextrose); 76 % of control (endpoint: median tumor weight (est.), dose: 25.0 mg/kg/injection, schedule: Q07DX005 (ip), vehicle: dextrose); 27 % of control (endpoint: median tumor weight (est.), dose: 50.0 mg/kg/injection, schedule: Q07DX005 (ip), vehicle: dextrose); 42 % of control (endpoint: median tumor weight (est.), dose: 100.0 mg/kg/injection, schedule: Q07DX005 (ip), vehicle: dextrose).

Source of the values: PubChem BioAssay AID220 (DTP/NCI, 2004).
